Assay results as given in patent publication US8507494B2, “Heterocyclic quinolizine derived M1 receptor positive allosteric modulators” (Merck Sharp & Dohme Corp., priority 2010, dated 2013).

Target: T1, acetylcholine muscarinic M1 receptor (Homo sapiens, UniProt P11229)
T1 construct: expressed in transfected cells; host or cells: CHOnfat cells (CHOnfat/hM1)
T1 sequence (P11229 1-460): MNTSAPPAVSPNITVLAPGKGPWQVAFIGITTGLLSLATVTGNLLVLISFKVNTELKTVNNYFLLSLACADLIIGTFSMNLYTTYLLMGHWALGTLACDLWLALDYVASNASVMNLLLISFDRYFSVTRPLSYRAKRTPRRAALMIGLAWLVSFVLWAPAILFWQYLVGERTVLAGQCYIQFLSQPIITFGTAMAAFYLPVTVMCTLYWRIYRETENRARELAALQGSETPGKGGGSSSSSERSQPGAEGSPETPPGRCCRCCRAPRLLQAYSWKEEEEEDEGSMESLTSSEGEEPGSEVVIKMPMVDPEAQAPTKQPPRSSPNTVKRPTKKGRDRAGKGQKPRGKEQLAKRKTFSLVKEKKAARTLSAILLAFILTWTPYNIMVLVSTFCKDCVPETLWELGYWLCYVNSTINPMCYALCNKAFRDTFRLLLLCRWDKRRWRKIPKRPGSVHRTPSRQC
Test: FLIPR intracellular calcium assay for M1 receptor positive allosteric modulator activity
Type: cell-based
Settings: inflection point from FLIPR values; CHOnfat/hM1 cells; 4 min preincubation, then EC20 acetylcholine (3 nM final); read-out: M1 IP Value
Description: The assay studies the effect of one or several concentrations of test compounds on basal or acetylcholine-stimulated Ca^2+ levels using FLIPR.
Compounds are prepared and subjected to a preincubation period of 4 min. Thereafter, a single EC20 concentration of acetylcholine is added to each well (3 nM final). The intracellular Ca^2+ level of each sample is measured and compared to an acetylcholine control to determine any modulatory activity.
Cells: CHOnfat/hM1, hM2, hM3 or hM4 cells are plated 24 hr before the assay at a density of 18,000 cells/well (100 μL) in a 384 well plate. CHOnfat/hM1 and CHOnfat/hM3 Growth Medium: 90% DMEM (Hi Glucose); 10% HI FBS; 2 mM L-glutamine; 0.1 mM NEAA; Pen-Strep; and […] Geneticin, are added. For M2Gqi5CHOnfat and M4Gqi5CHOnfat cells, an additional 600 ug/ml hygromycin is added.
Equipment: 384 well plate, 120 μL addition plate; 96-well Whatman 2 ml Uniplate Incubator, 37° C., 5% CO2; Skatron EMBLA-384 Plate Washer; Multimek Pipetting System; Genesis Freedom 200 System; Mosquito System; Temo Nanolitre Pipetting System; and FLIPR^384 Fluorometric Imaging Plate Reader System are used.
Buffers. […]
After 60 min, the cells are washed three times with 100 μL of buffer, leaving 30 μL of buffer in each well. […] A signal test to check background fluorescence and basal fluorescence signal is performed. […]

SMILES	EC50 [µM]
Cn1cc(N2CCN(Cc3cc4c(=O)n(-c5ccccc5F)nc-4n4ccccc34)CC2=O)cn1 [Example 2, 2-(2-Fluorophenyl)-5-{[4-(1-methyl-1H-pyrazol-4-yl)-3-oxopiperazin-1-yl]methyl}pyrazolo[4,3-c]quinolizin-3(2H)-one]	0.322
Cc1ccnc(C2(C#N)CCN(Cc3cc4c(=O)n(-c5ccccc5F)nc-4n4ccccc34)CC2)c1 [Example 1, 1-{[2-(2-Fluorophenyl)-3-oxo-2,3-dihydropyrazolo[4,3-c]quinolizin-5-yl]methyl}-4-(4-methylpyridin-2-yl)piperidine-4-carbonitrile]	0.175
